Measured values from US8076374B2 (Eli Lilly and Company, priority 2005, dated 2011).

Biological target: cloned human glucagon receptor (Homo sapiens, UniProt P47871)
Test: Glucagon Receptor (hGlucR) Binding Assay
Method: This plasmid DNA is transfected into 293 HEK cells and selected with 200 μg/mL Hygromycin.
Crude plasma membranes are prepared using cells from suspension culture. The cells are lysed on ice in hypotonic buffer containing 25 mM Tris HCL, pH 7.5, 1 mM MgCl2, DNAsel, 20 u/mL, and Roche Complete Inhibitors-without EDTA. The cell suspension is homogenized with a glass dounce homogenizer using a Teflon pestle for 25 strokes. The homogenate is centrifuged at 4 degrees C. at 1800×g for 15 mins. The supernate is collected and the pellet is resuspended in hypotonic buffer and rehomogenized. The mixture is centrifuged at 1800×g for 15 mins. The second supernate is combined with the first supernate. The combined supernates are recentrifuged at 1800×g for 15 mins to clarify. The clarified supernate is transferred to high speed tubes and centrifuged at 25000×g for 30 minutes at 4 degrees C. The membrane pellet is resuspended in homogenization buffer and stored as frozen aliquots at −80 degree C. freezer until needed.
The specific activity is 2200 Ci/mmol.
The binding buffer contains 25 mM Hepes, pH 7.4, 2.5 mM CaCl2, 1 mM MgCl2, 0.1% fatty acid free BSA, (ICN), 0.003% tween-20, and Roche Complete Inhibitors without EDTA. […] Test compounds are dissolved in DMSO and serially diluted in DMSO. […] Plates are read with a MicroBeta after 14 hours of settling time at room temp.

Chain of cloned human glucagon receptor (P47871 26-477): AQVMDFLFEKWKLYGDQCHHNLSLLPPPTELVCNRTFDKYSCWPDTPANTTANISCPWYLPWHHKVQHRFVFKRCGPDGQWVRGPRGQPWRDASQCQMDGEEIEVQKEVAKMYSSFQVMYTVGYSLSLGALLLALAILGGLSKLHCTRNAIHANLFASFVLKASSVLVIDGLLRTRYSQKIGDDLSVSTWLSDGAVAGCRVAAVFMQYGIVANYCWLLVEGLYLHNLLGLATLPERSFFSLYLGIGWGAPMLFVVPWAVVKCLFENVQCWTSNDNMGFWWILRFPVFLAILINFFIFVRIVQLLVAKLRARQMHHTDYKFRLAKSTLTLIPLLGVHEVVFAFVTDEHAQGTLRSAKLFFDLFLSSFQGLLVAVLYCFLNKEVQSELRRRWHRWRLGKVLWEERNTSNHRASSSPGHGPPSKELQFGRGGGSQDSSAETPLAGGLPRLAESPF

Row | Ki [nM] | Structure (SMILES)
1 | 87 | C=CCC(CC=C)(COc1cc(C)c(-c2ccc(C(F)(F)F)cc2)c(C)c1)c1ccc(C(=O)NCCC(=O)O)cc1
2 | 61 | Cc1cc(OCC(c2ccc(C(=O)NCCC(=O)O)cc2)C(C)C)cc(C)c1-c1ccc(C(C)(C)C)cc1 (centres unmarked)
